Experimental data taken from PMC12019385 (Scientific Reports, 2025).

Tests used:
[1] = biological target: Hsp70 A (heat shock 70 kDa protein A) (Caenorhabditis elegans, UniProt P09446); test: microscale thermophoresis; type: binding
[2] = biological target: V-ATPase A (V-type proton ATPase catalytic subunit A) (Caenorhabditis elegans, UniProt Q9XW92); test: microscale thermophoresis; type: binding
Sequence of V-ATPase A (V-type proton ATPase catalytic subunit A) (Q9XW92 whole entry): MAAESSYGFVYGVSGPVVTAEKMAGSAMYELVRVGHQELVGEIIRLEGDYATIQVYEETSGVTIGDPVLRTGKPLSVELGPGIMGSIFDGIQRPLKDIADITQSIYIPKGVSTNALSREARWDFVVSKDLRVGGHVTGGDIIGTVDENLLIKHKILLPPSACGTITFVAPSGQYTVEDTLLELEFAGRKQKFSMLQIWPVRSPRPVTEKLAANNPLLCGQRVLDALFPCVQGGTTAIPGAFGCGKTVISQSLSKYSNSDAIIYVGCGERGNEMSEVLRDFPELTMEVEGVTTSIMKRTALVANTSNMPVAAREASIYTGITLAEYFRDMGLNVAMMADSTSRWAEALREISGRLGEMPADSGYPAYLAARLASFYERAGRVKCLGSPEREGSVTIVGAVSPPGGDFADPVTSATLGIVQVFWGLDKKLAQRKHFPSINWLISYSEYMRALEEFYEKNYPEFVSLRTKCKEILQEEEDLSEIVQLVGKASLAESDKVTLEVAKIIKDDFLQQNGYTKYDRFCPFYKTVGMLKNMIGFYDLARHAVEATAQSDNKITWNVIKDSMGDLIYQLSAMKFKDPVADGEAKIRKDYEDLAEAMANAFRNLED

Sequence of Hsp70 A (heat shock 70 kDa protein A) (P09446 whole entry): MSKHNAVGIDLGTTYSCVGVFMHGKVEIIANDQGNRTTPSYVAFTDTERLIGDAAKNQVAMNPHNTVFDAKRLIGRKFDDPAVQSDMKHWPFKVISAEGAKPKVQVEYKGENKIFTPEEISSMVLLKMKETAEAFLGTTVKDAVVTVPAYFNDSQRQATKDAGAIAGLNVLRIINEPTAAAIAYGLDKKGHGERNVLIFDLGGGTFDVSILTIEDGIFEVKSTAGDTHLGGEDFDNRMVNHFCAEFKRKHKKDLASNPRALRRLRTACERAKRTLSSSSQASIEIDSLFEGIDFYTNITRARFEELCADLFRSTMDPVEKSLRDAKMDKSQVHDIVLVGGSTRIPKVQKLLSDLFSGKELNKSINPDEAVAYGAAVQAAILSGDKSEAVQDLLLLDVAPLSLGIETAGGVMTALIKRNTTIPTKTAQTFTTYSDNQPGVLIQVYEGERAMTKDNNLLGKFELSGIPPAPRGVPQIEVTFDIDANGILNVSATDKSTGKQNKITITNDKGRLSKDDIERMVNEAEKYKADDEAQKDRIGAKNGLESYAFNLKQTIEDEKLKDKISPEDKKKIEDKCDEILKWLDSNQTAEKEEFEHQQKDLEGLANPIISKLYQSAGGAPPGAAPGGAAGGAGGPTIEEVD

CCCCCCCCCC(C)=O [2-undecanone]
Kd [1]: 117 ± 16.3 nM | Kd [2]: 302 ± 43.9 nM
